Data on four compounds can be found in US7732464B2, “Heterocyclic substituted 4-(aminomethyl)-piperidine benzamides as 5HT4-antagonists” (Janssen Pharmaceutica, N.V., priority 2003, dated 2010).

Structures can show the parent of a compound that is named as a salt.

The target in one data set is T1, h5-HT4b (Homo sapiens, UniProt Q13639).
T1 construct: expressed in transfected cells; host or cells: HEK 293 (clone 9), membrane preparation
Briefly: 5HT4 antagonism: [3H]GR113808 binding to membranes of h5-HT4b-HEK 293 clone 9 cells. To be noted: displacement of [3H]GR113808 0.1 nM; h5-HT4b-HEK 293 membranes; 30 min at 25° C.; read-out: pIC50 (5HT4 antagonistic data) (converted). As to the method: h5-HT4b-HEK 293 clone 9 cells were cultured in 150 mm Petri dishes and washed twice with cold PBS. The cells were then scraped from the plates and suspended in 50 mM Tris-HCl buffer, pH 7.4 and harvested by centrifugation at 23,500 rpm for 10 minutes. The pellet was resuspended in 5 mM Tris-HCl, pH 7.4 and homogenized with an Ultra Turrax homogenizer. The membranes were collected by centrifugation at 30,000 rpm for 20 min, resuspended in 50 mM Tris-HCl pH 7.4 and stored at −80° C. For the experiment, assay mixtures (0.5 ml) contained 50 μl of the tritiated ligand (5-HT4 antagonist [^3H]GR113808 0.1 nM) and 0.4 ml membrane preparation (15 μg protein/ml). 50 μl of 10% DMSO was added for total binding. 50 μl of 1 μM of (+)-trans-(1-butyl-3-hydroxy-4-piperidinyl)methyl 8-amino-7-chloro-2,3-dihydro-1,4-benzodioxin-5-carboxylate (a proprietary 5HT4 agonist of Janssen Pharmaceutica) was added for determination of non-specific binding.
The [^3H]GR113808 assay buffer was 50 mM HEPES-NaOH, pH 7.4. The mixtures were incubated for 30 min at 25° C. The incubation was terminated by filtration over a Unifilter 96 GF/B presoaked in 0.1% polyethylenimine, followed by six washing steps with 50 mM HEPES-NaOH, pH 7.4.

A short description of data set [1]: Metabolic stability: incubation with liver microsomes and NADPH-generating system, LC-MS analysis. It is filed as in vitro ADME. To be noted: compound 5 μM; microsomes 1 mg/ml; NADPH-generating system; 60 minutes at 37 degrees Celsius. As to the method: Sub-cellular tissue preparations were made according to Gorrod et al. (Xenobiotica 5: 453-462, 1975) by centrifugal separation after mechanical homogenization of tissue. Liver tissue was rinsed in ice-cold 0.1 M Tris-HCl (pH 7.4) buffer to wash excess blood. Tissue was then blotted dry, weighed and chopped coarsely using surgical scissors. The tissue pieces were homogenized in 3 volumes of ice-cold 0.1 M phosphate buffer (pH 7.4).
Tissue homogenates were centrifuged at 9000×g for 20 minutes at 4° C. The resulting supernatant was stored at −80° C. and is designated ‘S9’.
The S9 fraction can be further centrifuged at 100.000×g for 60 minutes (4° C.). The resulting supernatant was carefully aspirated, aliquoted and designated ‘cytosol’. The pellet was re-suspended in 0.1 M phosphate buffer (pH 7.4) in a final volume of 1 ml per 0.5 g original tissue weight and designated ‘microsomes’.
All sub-cellular fractions were aliquoted, immediately frozen in liquid nitrogen and stored at −80° C. until use.
For the samples to be tested, the incubation mixture contained PBS (0.1M), compound (5 μM), microsomes (1 mg/ml) and a NADPH-generating system (0.8 mM glucose-6-phosphate, 0.8 mM magnesium chloride and 0.8 Units of glucose-6-phosphate dehydrogenase). Control samples contained the same material but the microsomes were replaced by heat inactivated (10 minutes at 95 degrees Celsius) microsomes. Recovery of the compounds in the control samples was always 100%.
The mixtures were preincubated for 5 minutes at 37 degrees Celsius. The reaction was started at time point zero (t=0) by addition of 0.8 mM NADP and the samples were incubated for 60 minutes (t=60). The reaction was terminated by the addition of 2 volumes of DMSO. Then the samples were centrifuged for 10 minutes at 900×g and the supernatants were stored at room temperature for no longer as 24 hours before analysis. All incubations were performed in duplo. Analysis of the supernatants was performed with LC-MS analysis. Elution of the samples was performed on a Xterra MS C18 (50×4.6 mm, 5 μm, Waters, US). An Alliance 2790 (Supplier: Waters, US) HPLC system was used. Elution was with buffer A (25 mM ammoniumacetate (pH 5.2) in H2O/acetonitrile (95/5)), solvent B being acetonitrile and solvent C methanol at a flow rate of 2.4 ml/min. The gradient employed was increasing the organic phase concentration from 0% over 50% B and 50% C in 5 min up to 100% B in 1 minute in a linear fashion and organic phase concentration was kept stationary for an additional 1.5 minutes. Total injection volume of the samples was 25 μl.
A Quatro triple quadrupole mass spectrometer fitted with and ESP source was used as detector. The source and the desolvation temperature were set at 120 and 350° C. respectively and nitrogen was used as nebuliser and drying gas. Data were acquired in positive scan mode (single ion reaction). Cone voltage was set at 10 V and the dwell time was 1 second.
Metabolic stability was expressed as % metabolism of the compound after 60 minutes (equation given as Example) of incubation in the presence of active microsomes E(act))
A general note: Microsomes from liver hold many membrane-bound enzymes, among them those of drug oxidation.

T1 sequence (Q13639 whole entry): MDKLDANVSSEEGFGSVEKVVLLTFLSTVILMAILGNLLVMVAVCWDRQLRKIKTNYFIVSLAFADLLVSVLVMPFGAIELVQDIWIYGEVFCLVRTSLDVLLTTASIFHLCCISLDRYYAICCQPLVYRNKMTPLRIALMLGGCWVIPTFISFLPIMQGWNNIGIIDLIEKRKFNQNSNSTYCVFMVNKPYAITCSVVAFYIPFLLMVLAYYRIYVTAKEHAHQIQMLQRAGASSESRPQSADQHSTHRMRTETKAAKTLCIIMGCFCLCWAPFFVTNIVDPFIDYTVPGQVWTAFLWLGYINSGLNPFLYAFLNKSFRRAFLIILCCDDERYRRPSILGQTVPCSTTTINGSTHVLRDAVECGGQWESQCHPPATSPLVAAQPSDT

As for `O=C(NCC1CCN(CCCc2nnn[nH]2)CC1O)c1cc(Cl)cc2c1OCCCO2` (stereo not drawn) (as salt: HCl) [Compound 7], the melting point is 212 °C. `Cc1cc2c(c(C(=O)NC[C@@H]3CCN(CCCc4cc(O)no4)C[C@H]3O)c1)OCCCO2` (hydrate or solvate) [Compound 23]: the melting point was over 93 °C. Take `Cc1cc2c(c(C(=O)NC[C@@H]3CCN(CCc4nnn[nH]4)C[C@H]3O)c1)OCCCO2` [Compound 19]: the melting point is over 125 °C. Besides, on h5-HT4b, the IC50 was 46.8 nM. Moreover, the “% metabolised compound after 60 minutes” value in data set [1] is 1%. `Cc1cc2c(c(C(=O)NCC3CCN(CCCN4CC(=O)NC4=O)CC3O)c1)OCCCO2` (stereo not drawn) (hydrate or solvate) [Compound 24] gave a melting point of 135 °C.

In general, melting point refers to the temperature of the solid-liquid transition.
